Measurements as given in US20060252807A1, “Novel ortho-terphenyl inhibitors of p38 kinase and methods of treating inflammatory disorders” (Kalypsys, Inc., priority 2005, published 2006).

Each compound was assayed against T1, active p38 alpha enzyme (Upstate Biotechnology) (Homo sapiens, UniProt Q16539) (assay: p38α biochemical assay (ATP turnover, luminescent detection, Cambrex PKlight)). Conditions: p38α kinase; Table 1 Biological Activity.
T1 construct: purchased Upstate Biotechnology
Outline: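 Luminescent ATP-depletion readout measures total ATP turnover by p38α phosphorylating whole MapkapK2 protein. ATP 1.4 uM final; 30C, 2 h. Compounds delivered from DMSO.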

T1 sequence (Q16539 whole entry): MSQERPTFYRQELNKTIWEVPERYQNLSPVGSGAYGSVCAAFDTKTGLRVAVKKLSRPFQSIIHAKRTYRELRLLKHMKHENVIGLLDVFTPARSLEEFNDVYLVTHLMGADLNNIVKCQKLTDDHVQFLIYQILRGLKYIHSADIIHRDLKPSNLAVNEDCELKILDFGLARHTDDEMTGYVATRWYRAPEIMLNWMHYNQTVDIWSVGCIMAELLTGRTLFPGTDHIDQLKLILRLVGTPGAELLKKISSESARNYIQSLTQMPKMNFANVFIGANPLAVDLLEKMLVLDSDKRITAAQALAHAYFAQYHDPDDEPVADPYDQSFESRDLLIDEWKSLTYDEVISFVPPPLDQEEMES

| IC50 [nM] | SMILES |
| --- | --- |
| > 1000 | O=C(NCc1ccc(F)cc1)c1csc(-c2c(-c3ccc(F)cc3)n[nH]c2C2CCNCC2)n1 [Example 2081] |
| ≤ 1000 | O=C(NCc1ccccc1F)c1csc(-c2c(-c3ccc(F)cc3)n[nH]c2C2CCNCC2)n1 [Example 2082] |
| > 1000 | O=C(NCCCn1ccnc1)c1csc(-c2c(-c3ccc(F)cc3)n[nH]c2C2CCNCC2)n1 [Example 2083] |
| > 1000 | CN1CCCC1CCNC(=O)c1csc(-c2c(-c3ccc(F)cc3)n[nH]c2C2CCNCC2)n1 (centres unmarked) [Example 2084] |
| > 1000 | O=C(NCCN1CCCCC1)c1csc(-c2c(-c3ccc(F)cc3)n[nH]c2C2CCNCC2)n1 [Example 2085] |
| > 1000 | CC(C)CCCC(C)NC(=O)c1csc(-c2c(-c3ccc(F)cc3)n[nH]c2C2CCNCC2)n1 (centres unmarked) [Example 2086] |
| > 1000 | O=C(NCCN1CCOCC1)c1csc(-c2c(-c3ccc(F)cc3)n[nH]c2C2CCNCC2)n1 [Example 2087] |
| > 1000 | CCOC(=O)CC(C)NC(=O)c1csc(-c2c(-c3ccc(F)cc3)n[nH]c2C2CCNCC2)n1 (centres unmarked) [Example 2088] |
| > 1000 | O=C(NC1CCc2ccccc21)c1csc(-c2c(-c3ccc(F)cc3)n[nH]c2C2CCNCC2)n1 (centres unmarked) [Example 2089] |
| > 1000 | Cc1ccc(CCNC(=O)c2csc(-c3c(-c4ccc(F)cc4)n[nH]c3C3CCNCC3)n2)cc1 [Example 2090] |
| > 1000 | Cc1ccc(C)c(CNC(=O)c2csc(-c3c(-c4ccc(F)cc4)n[nH]c3C3CCNCC3)n2)c1 [Example 2091] |
| > 1000 | Cc1ccc([C@H](C)NC(=O)c2csc(-c3c(-c4ccc(F)cc4)n[nH]c3C3CCNCC3)n2)cc1 [Example 2092] |
| > 1000 | Cc1ccc([C@@H](C)NC(=O)c2csc(-c3c(-c4ccc(F)cc4)n[nH]c3C3CCNCC3)n2)cc1 [Example 2093] |
| > 1000 | CC(CNC(=O)c1csc(-c2c(-c3ccc(F)cc3)n[nH]c2C2CCNCC2)n1)c1ccccc1 (centres unmarked) [Example 2094] |
| > 1000 | CC(CNC(=O)c1csc(-c2c(-c3ccc(F)cc3)n[nH]c2C2CCNCC2)n1)c1ccccc1 (centres unmarked) [Example 2095] |
| > 1000 | O=C(NCCCc1ccccc1)c1csc(-c2c(-c3ccc(F)cc3)n[nH]c2C2CCNCC2)n1 [Example 2096] |
| > 1000 | Cc1ccc(CNC(=O)c2csc(-c3c(-c4ccc(F)cc4)n[nH]c3C3CCNCC3)n2)cc1C [Example 2097] |
| > 1000 | CC(Cc1ccncc1)NC(=O)c1csc(-c2c(-c3ccc(F)cc3)n[nH]c2C2CCNCC2)n1 (centres unmarked) [Example 2098] |
| > 1000 | O=C(NCCc1ccc(O)cc1)c1csc(-c2c(-c3ccc(F)cc3)n[nH]c2C2CCNCC2)n1 [Example 2099] |
| > 1000 | O=C(NCCOc1ccccc1)c1csc(-c2c(-c3ccc(F)cc3)n[nH]c2C2CCNCC2)n1 [Example 2100] |
| > 1000 | COc1ccccc1CNC(=O)c1csc(-c2c(-c3ccc(F)cc3)n[nH]c2C2CCNCC2)n1 [Example 2101] |
| ≤ 1000 | COc1ccc(CNC(=O)c2csc(-c3c(-c4ccc(F)cc4)n[nH]c3C3CCNCC3)n2)cc1 [Example 2102] |
| > 1000 | COc1cccc(CNC(=O)c2csc(-c3c(-c4ccc(F)cc4)n[nH]c3C3CCNCC3)n2)c1 [Example 2103] |
| > 1000 | O=C(NCCc1ccc(F)cc1)c1csc(-c2c(-c3ccc(F)cc3)n[nH]c2C2CCNCC2)n1 [Example 2104] |

| IC50 [nM] | SMILES |
| --- | --- |
| > 1000 | O=C(NCCc1ccccc1F)c1csc(-c2c(-c3ccc(F)cc3)n[nH]c2C2CCNCC2)n1 [Example 2105] |
| > 1000 | O=C(NCCc1cccc(F)c1)c1csc(-c2c(-c3ccc(F)cc3)n[nH]c2C2CCNCC2)n1 [Example 2106] |
| > 1000 | O=C(NCc1cccc(Cl)c1)c1csc(-c2c(-c3ccc(F)cc3)n[nH]c2C2CCNCC2)n1 [Example 2107] |
| > 1000 | O=C(NCc1ccccc1Cl)c1csc(-c2c(-c3ccc(F)cc3)n[nH]c2C2CCNCC2)n1 [Example 2108] |
| > 1000 | O=C(NCc1ccc(Cl)cc1)c1csc(-c2c(-c3ccc(F)cc3)n[nH]c2C2CCNCC2)n1 [Example 2109] |
| > 1000 | O=C(NCCCN1CCCC1=O)c1csc(-c2c(-c3ccc(F)cc3)n[nH]c2C2CCNCC2)n1 [Example 2110] |
| > 1000 | O=C(NCc1ccc(F)cc1F)c1csc(-c2c(-c3ccc(F)cc3)n[nH]c2C2CCNCC2)n1 [Example 2111] |
| > 1000 | O=C(NCc1ccc(F)c(F)c1)c1csc(-c2c(-c3ccc(F)cc3)n[nH]c2C2CCNCC2)n1 [Example 2112] |
| > 1000 | O=C(NCc1cc(F)cc(F)c1)c1csc(-c2c(-c3ccc(F)cc3)n[nH]c2C2CCNCC2)n1 [Example 2113] |
| > 1000 | O=C(NCCCN1CCOCC1)c1csc(-c2c(-c3ccc(F)cc3)n[nH]c2C2CCNCC2)n1 [Example 2114] |
| > 1000 | CC(C)N(CCNC(=O)c1csc(-c2c(-c3ccc(F)cc3)n[nH]c2C2CCNCC2)n1)C(C)C [Example 2115] |
| > 1000 | O=C(NC1CCCc2ccccc21)c1csc(-c2c(-c3ccc(F)cc3)n[nH]c2C2CCNCC2)n1 (centres unmarked) [Example 2116] |
| > 1000 | CC(CCc1ccccc1)NC(=O)c1csc(-c2c(-c3ccc(F)cc3)n[nH]c2C2CCNCC2)n1 (centres unmarked) [Example 2117] |
| > 1000 | CC(C)c1ccc(CNC(=O)c2csc(-c3c(-c4ccc(F)cc4)n[nH]c3C3CCNCC3)n2)cc1 [Example 2118] |
| > 1000 | O=C(NCc1ccc2c(c1)OCO2)c1csc(-c2c(-c3ccc(F)cc3)n[nH]c2C2CCNCC2)n1 [Example 2119] |
| > 1000 | COc1cccc(CCNC(=O)c2csc(-c3c(-c4ccc(F)cc4)n[nH]c3C3CCNCC3)n2)c1 [Example 2120] |
| > 1000 | O=C(N[C@H](CO)Cc1ccccc1)c1csc(-c2c(-c3ccc(F)cc3)n[nH]c2C2CCNCC2)n1 [Example 2121] |
| > 1000 | COc1ccc(CCNC(=O)c2csc(-c3c(-c4ccc(F)cc4)n[nH]c3C3CCNCC3)n2)cc1 [Example 2122] |
| > 1000 | COc1ccccc1CCNC(=O)c1csc(-c2c(-c3ccc(F)cc3)n[nH]c2C2CCNCC2)n1 [Example 2123] |
| > 1000 | CCOc1ccccc1CNC(=O)c1csc(-c2c(-c3ccc(F)cc3)n[nH]c2C2CCNCC2)n1 [Example 2124] |
| > 1000 | COc1ccc(NC(=O)c2csc(-c3c(-c4ccc(F)cc4)n[nH]c3C3CCNCC3)n2)cc1OC [Example 2125] |
| > 1000 | O=C(NCCc1ccccc1Cl)c1csc(-c2c(-c3ccc(F)cc3)n[nH]c2C2CCNCC2)n1 [Example 2126] |
| > 1000 | O=C(NCCc1ccc(Cl)cc1)c1csc(-c2c(-c3ccc(F)cc3)n[nH]c2C2CCNCC2)n1 [Example 2127] |
| > 1000 | O=C(NCCc1cccc(Cl)c1)c1csc(-c2c(-c3ccc(F)cc3)n[nH]c2C2CCNCC2)n1 [Example 2128] |

| IC50 [nM] | SMILES |
| --- | --- |
| > 1000 | CC1(C)CC(NC(=O)c2csc(-c3c(-c4ccc(F)cc4)n[nH]c3C3CCNCC3)n2)CC(C)(C)N1 [Example 2129] |
| > 1000 | CCN(CC)CCCC(C)NC(=O)c1csc(-c2c(-c3ccc(F)cc3)n[nH]c2C2CCNCC2)n1 (centres unmarked) [Example 2130] |
| > 1000 | O=C(NCc1ccc(F)c(Cl)c1)c1csc(-c2c(-c3ccc(F)cc3)n[nH]c2C2CCNCC2)n1 [Example 2131] |
| > 1000 | N#CCCN(Cc1ccccc1)C(=O)c1csc(-c2c(-c3ccc(F)cc3)n[nH]c2C2CCNCC2)n1 [Example 2132] |
| > 1000 | CC(C)(C)OC(=O)NCCNC(=O)c1csc(-c2c(-c3ccc(F)cc3)n[nH]c2C2CCNCC2)n1 [Example 2133] |
| > 1000 | O=C(NCCc1c[nH]c2ccccc12)c1csc(-c2c(-c3ccc(F)cc3)n[nH]c2C2CCNCC2)n1 [Example 2134] |
| > 1000 | CC(C)(C)c1ccc(CNC(=O)c2csc(-c3c(-c4ccc(F)cc4)n[nH]c3C3CCNCC3)n2)cc1 [Example 2135] |
| > 1000 | CN(CCCNC(=O)c1csc(-c2c(-c3ccc(F)cc3)n[nH]c2C2CCNCC2)n1)c1ccccc1 [Example 2136] |
| > 1000 | O=C(NCC1(O)CCCCC1)c1csc(-c2c(-c3ccc(F)cc3)n[nH]c2C2CCNCC2)n1 [Example 2137] |
| > 1000 | COc1cc(CNC(=O)c2csc(-c3c(-c4ccc(F)cc4)n[nH]c3C3CCNCC3)n2)cc(OC)c1 [Example 2138] |
| > 1000 | COc1ccc(CNC(=O)c2csc(-c3c(-c4ccc(F)cc4)n[nH]c3C3CCNCC3)n2)cc1OC [Example 2139] |
| > 1000 | O=C(CNC(=O)c1csc(-c2c(-c3ccc(F)cc3)n[nH]c2C2CCNCC2)n1)c1ccccc1 [Example 2140] |
| > 1000 | CCOC(=O)N1CCC(NC(=O)c2csc(-c3c(-c4ccc(F)cc4)n[nH]c3C3CCNCC3)n2)CC1 [Example 2141] |
| > 1000 | CC(C)(C)OC(=O)NCCCNC(=O)c1csc(-c2c(-c3ccc(F)cc3)n[nH]c2C2CCNCC2)n1 [Example 2142] |
| > 1000 | O=C(NCc1ccc(C(F)(F)F)cc1)c1csc(-c2c(-c3ccc(F)cc3)n[nH]c2C2CCNCC2)n1 [Example 2143] |
| > 1000 | O=C(NCc1cccc(C(F)(F)F)c1)c1csc(-c2c(-c3ccc(F)cc3)n[nH]c2C2CCNCC2)n1 [Example 2144] |
| > 1000 | O=C(NCc1ccc(Cl)c(Cl)c1)c1csc(-c2c(-c3ccc(F)cc3)n[nH]c2C2CCNCC2)n1 [Example 2145] |
| > 1000 | O=C(NCc1ccc(Cl)cc1Cl)c1csc(-c2c(-c3ccc(F)cc3)n[nH]c2C2CCNCC2)n1 [Example 2146] |
| > 1000 | O=C(NC1CCN(Cc2ccccc2)C1)c1csc(-c2c(-c3ccc(F)cc3)n[nH]c2C2CCNC2)n1 (centres unmarked) [Example 2147] |
| > 1000 | COc1ccc(OC)c(CCNC(=O)c2csc(-c3c(-c4ccc(F)cc4)n[nH]c3C3CCNCC3)n2)c1 [Example 2148] |
| > 1000 | CN(C)c1ccc(CNC(=O)c2csc(-c3c(-c4ccc(F)cc4)n[nH]c3C3CCNCC3)n2)cc1 [Example 2149] |
| ≤ 1000 | COc1ccc(CNC(=O)c2csc(-c3c(-c4ccc(F)cc4)n[nH]c3C3CCNCC3)n2)cc1O [Example 2150] |
| > 1000 | O=C(NC1CCN(Cc2ccccc2)CC1)c1csc(-c2c(-c3ccc(F)cc3)n[nH]c2C2CCNCC2)n1 [Example 2151] |
